Test results published in US10058587B2, “Peptide composition for cancer treatment by inhibiting TRPV6 calcium channel activity” (priority 2008, dated 2018).
Where no end group is shown, it is not given here.

Assays:
[1] = tested on: SKOV3 ovarian cancer xenografts; assay: SKOV3 ovarian cancer xenograft, SorC13 with CAT chemotherapy (Example 26); format: in vivo, NOD/SCID mice; settings: day 12; SorC13 300 mg/kg i.p. Day 1 to 12
Protocol: SorC13 stock solutions were prepared by dissolving the appropriate amounts of the compound in physiologically buffered saline (pH 7.0 at 25° C.) to comprise a final solution to deliver 300 mg/Kg mouse. Stock solutions were prepared weekly, stored at −20° C. and diluted fresh each day for dosing. All solutions were filter sterilized with a 0.22 mu filter prior to further manipulation. The filter sterilizer units were pre-washed with a small volume of sterile distilled water. […]
To implant SKOV3 tumor cells into NOD/SCID mice, cell cultures were centrifuged to pellet the cells, the supernatant was aspirated, the cell pellet resuspended in 10 ml of growth media and the cell number was determined using a hemocytometer. […]
Tumor volumes (V) were calculated by caliper measurement using standard measurements of the width (W), length (L) and thickness (T) of tumors. […] Percentage ΔT/ΔC values, as a measure of efficacy, were determined where ΔC refers to change in volume of control or untreated tumor, and ΔT refers to change in volume of treated tumor.
Animals were intraperitoneally (i.p.) injected with the vehicular control, or the low, medium or high doses of CAT or CAT and SorC13. […] The tumor volume and body weights were measured every day. As well, general health of the animals was monitored every day.

[2] = Degradation rate in rat plasma (HPLC); format: in vitro ADME
Protocol: Rat plasma was obtained from blood taken from sacrificed rats (Sprague-Dawley) and placed into heparinized glass vials to prevent clotting. Whole blood was centrifuged at 8000×g for 5 minutes to spin down the cells leaving the plasma as supernatant. Human whole blood samples from healthy humans were taken in lithium-heparinized vacuum tubes. The samples were placed into 2.0 mL microcentrifuge tubes and centrifuged at 8000×g for 5 min. The plasma was carefully separated from red blood cells and used immediately.
Determination of degradation rate of the C-peptides was done by measuring, with the HPLC protocol, the amount of either SorC13 or SorC27 in dosed plasma samples, after time. Sample tubes (500 uL) containing 2 uL of 2 mM Pefabloc were previously prepared for sample delivery SorC13 (1.0 mg) or SorC27 (2.0 mg) were dissolved in 1.0 mL of fresh plasma (37° C.) and placed in an incubating water bath at 37° C. A sample (100 uL) was taken immediately and quenched in sample tubes containing 2 uL of 2 mM Pefabloc, mixed vigorously and immediately frozen at −80° C. This initial sample represented time zero for the run. At successive time intervals of 5 minutes, 100 uL samples were withdrawn, quenched in Pefabloc, mixed, and frozen at −80° C. until analysis.
The rat plasma degradation rate was determined for the plasma from three different rats, while the rate of degradation in human plasma used six separate plasma samples. The data used were the means (±SEM) and were fitted to a simple one-phase exponential decay model to determine the half-life of the two peptides. This also allowed the calculation of a static degradation rate. FIG. 11 is illustrative of the rate at which SorC27 was degraded in human plasma.

[3] = tested on: MDA-MB-231 (MB 231) breast cancer cell line; assay: Induction of apoptosis (APO-ONE caspase 3/7) and cell viability (CellTiter Blue); format: cell-based, human; set-up: key to Decline in cell viability: decreased (+); or not (−)
Protocol: (§1) MCF-7, MDA-MB-231, MDA-MB-415, MDA-MB-468 were grown in DMEM modified with 10% (v/v) fetal bovine serum, 2 mM L-glutamine and 50 ug/mL each of penicillin and streptomycin.
(§2) The levels of apoptotic induction and cell viability were determined by multiplexing the measurements for single samples. CellTiter Blue and APO-ONE assay systems from Promega allows the determination of cell viability correlated to cell number, and induction of apoptosis. This protocol uses a fluorgenic peptide that contains a peptide recognition-sequence for caspase 3 and caspase 7, […] proteolytic enzymes of the apoptosis cascade. The CellTiter Blue reagent was added to wells in a 96-well plate containing cells under test, immediately after addition of peptide solution or vehicle. About 5000 cells were plated into the wells the day before. At the chosen time (Day 1, Day 2 etc.) the fluorescence was measured at 590 nm (emission) after excitation at 560 nm. The caspase 3/7 activity was measured (485 nm Ex/527 nm Em) in the same wells after adding 120 uL of the Apo-ONE reagent, freeze fracturing at −80° C. for 1 hr, and incubating for 1 hr at room temperature.
(§3) For this work, the concentrations of SorC13 and SorC27 used were 0 uM, 1 uM, 10 uM and 100 uM. The experiments extended over a 5 to 7 day period. All measurements were done in quadruplicate with both a blank (no cells) and control (vehicle, no peptide) used to correct the test measurements. The time-response data, and the dose-response data were plotted as means±standard error of the mean. Any statistical comparisons were done with the Student's t-test or by ANOVA analysis over the dose course. The level of statistical significance was considered to be the 95% confidence interval (i.e., p≤0.05).

[4] = tested on: MDA-MB-415 (MB 415) breast cancer cell line; assay: as above; format: cell-based, human; set-up: key to Decline in cell viability: decreased (+); or not (−)
Protocol: as §1, §2, §3

In the case of KEFLHPSKVDLPR [SorC13, KEFLHPSKVDLPR], the “% ΔT/ΔC (tumour volume normalized to control volume)” value [1] is reported as 47.6% and the Mean tumor volume [1] is reported as 116.8 mm^3.
With EGKLSSNDTEGGLCKEFLHPSKVDLPR [SorC27] the half-life ([2]; Sprague-Dawley, rat, plasma, 37° C.) was 21 min, the “binding to plasma proteins” value ([2]; rat plasma) was “doesn't bind to” and the “Apoptosis Index (1 = no effect)” value ([3]; Day 3, SorC27 10 μM) was 1.5. The “Apoptosis Index (1 = no effect)” value ([3]; Day 3, SorC27 100 μM) was 1.7, the “Decline in cell viability” value ([3]; SorC27) was “+” and the “Decline in cell viability” value ([4]; SorC27) was “+”. For the same sequence, the “Apoptosis Index (1 = no effect)” value ([4]; SorC27 10 μM) was 1.3 and the “Apoptosis Index (1 = no effect)” value ([4]; SorC27 100 μM) was 1.5.
